The target of one data set is T1, FAS (Gallus gallus, UniProt P12276).
T1 construct: activity in isolated hepatocytes; endogenous in cells; host or cells: isolated hepatocytes
Put plainly: HPLC fractions checked in vitro for effect on FAS in isolated hepatocytes. It counts as cell-based. The conditions noted are these: HPLC fractions of petroleum ether solubles.

For data set [1], the target named is T2, HMG-CoA reductase (Homo sapiens, UniProt P04035).
T2 sequence (P04035 1-888): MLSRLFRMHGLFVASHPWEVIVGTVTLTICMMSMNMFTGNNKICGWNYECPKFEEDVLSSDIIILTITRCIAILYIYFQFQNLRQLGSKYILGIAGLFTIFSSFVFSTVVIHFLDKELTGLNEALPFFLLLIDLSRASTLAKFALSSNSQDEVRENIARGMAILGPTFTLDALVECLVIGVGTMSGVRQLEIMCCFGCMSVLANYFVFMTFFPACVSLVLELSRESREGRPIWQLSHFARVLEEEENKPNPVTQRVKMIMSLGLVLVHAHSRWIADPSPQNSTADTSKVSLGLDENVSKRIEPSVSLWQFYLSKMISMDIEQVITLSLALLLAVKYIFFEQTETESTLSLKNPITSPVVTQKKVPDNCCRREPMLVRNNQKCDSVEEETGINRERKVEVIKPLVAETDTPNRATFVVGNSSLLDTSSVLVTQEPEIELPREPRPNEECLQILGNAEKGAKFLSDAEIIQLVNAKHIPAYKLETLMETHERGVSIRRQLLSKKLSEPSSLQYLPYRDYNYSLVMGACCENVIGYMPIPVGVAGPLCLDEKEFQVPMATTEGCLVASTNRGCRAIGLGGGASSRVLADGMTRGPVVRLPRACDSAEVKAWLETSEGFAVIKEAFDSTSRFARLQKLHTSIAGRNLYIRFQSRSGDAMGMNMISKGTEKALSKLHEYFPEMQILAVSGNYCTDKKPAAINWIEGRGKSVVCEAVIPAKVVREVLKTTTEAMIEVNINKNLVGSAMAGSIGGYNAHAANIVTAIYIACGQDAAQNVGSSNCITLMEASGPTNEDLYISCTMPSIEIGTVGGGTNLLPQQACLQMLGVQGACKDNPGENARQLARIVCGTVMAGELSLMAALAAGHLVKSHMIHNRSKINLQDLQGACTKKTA
Put plainly: HPLC fractions checked in vitro for suppression of HMG Co-A reductase in isolated hepatocytes. It counts as cell-based. More on the design: suppress HMG Co-A reductase activity in isolated hepatocytes; endogenous in cells; host or cells: isolated hepatocytes. The conditions noted are these: HPLC fractions of petroleum ether solubles.

The target of data set [2] is T2, HMG-CoA reductase. Put plainly: Hepatic HMG-CoA reductase activity in 3-week-old broiler male chickens fed supplemented corn diet. It counts as in vivo, chicken. On the set-up: preparing subcellular fractions of liver and assay procedures for beta-hydroxy-beta-methylglutaryl coenzyme A (HMG Co-A) reductase; from tissue; host or cells: chicken liver (microsomal fraction). The conditions noted are these: liver; for HMG-CoA Reductase: mean ± SD, N = 9. An excerpt: (§1) These responses were attributed to the presence in the small grains of relatively high concentrations of beta-D-glucans and pentosans. A long-standing interest in lipid metabolism prompted us to examine certain lipogenic and cholesterolgenic enzymes in the tissues of these birds. Methods used for handling blood samples, preparing subcellular fractions of liver and assay procedures for beta-hydroxy-beta-methylglutaryl coenzyme A (HMG Co-A) reductase, fatty acid synthetase (FAS), plasma cholesterol and triglycerides and the statistical treatment of the data have been described [Qureshi AA et al. (1980): Regulation of lipid metabolism in chicken livers by dietary cereals, J Nutr 110:388-393].
For large scale preparation of these compounds, 10 grams of the petroleum ether soluble fraction of HPBF were dissolved in 10 ml petroleum ether and applied to a 90×3.5 cm silicic acid column (Bio-Silica, 100-200 mesh). The column was washed with 2,500 ml petroleum ether followed by stepwise elution with increasing amounts of ether in petroleum ether. Fraction 8 of the column corresponded to HPLC fraction 5. A concentration-dependent suppression of HMG Co-A reductase activity and enhancement of FAS activity was noted within this range. Serum total and LDL cholesterol levels also fell in a dose-dependent response. […] In a companion experiment, using the same control birds, the effect of cholesterol inhibitor I at 5 ppm is compared to the effect of the petroleum ether solubles of HPBF at 20% equivalent on weight gain, HMG Co-A reductase and FAS activities, serum cholesterol and serum triglyceride levels (Table 2). […] Serum triglyceride levels reflected the influence of the diet on FAS activity. […] Cholesterol inhibitor I was a more powerful suppressor of LDL cholesterol (Table 2).
^1 Feeding period was 3 weeks; Time of killing was 0800; Data
expressed as mean ± SD; N = 9 chickens per group; HMGCoA reductase =
hydroxy-methyl-Glutaryl-Coenzyme A reductase.
^2 pmoles of mevalonic acid synthesized per minute per mg of […]

Data set [3] addresses T2, HMG-CoA reductase. Put plainly: Hepatic HMG-CoA reductase activity in 13-week-old WLH male chickens. The conditions noted are these: 20 ppm in corn diet, fed four weeks, liver. On the set-up: preparing subcellular fractions of liver and assay procedures for beta-hydroxy-beta-methylglutaryl coenzyme A (HMG Co-A) reductase; from tissue; host or cells: chicken liver (microsomal fraction). It counts as in vivo, chicken.
Text: as §1
Cholesterol inhibitor I was re-chromatographed by HPLC and the UV absorption spectrum obtained. Maximum absorption occurred at 292 nm. This purified fraction was used for high resolution mass spectrometric analysis. Several scans were made using ionization temperatures from 90-180 degrees Centigrade to increase the possibility of detecting impurities. […] The results shown on Table 3 confirm those previously recorded for petroleum ether solubles of HPBF and cholestrol inhibitor I. In a final experiment, the effects of cholestrol inhibitor I and lemon grass oil on hepatocyte HMG Co-A reductase and FAS activities were tested. […]
expressed as mean ± SD; N = 8 chickens per group; HMGCoA reductase = […]

The mark [4] stands for this setting: 2.5 ppm in corn diet, fed 3 weeks.
[5] abbreviates: 5.0 ppm in corn diet, fed 3 weeks.
The mark [6] stands for this setting: 10.0 ppm in corn diet, fed 3 weeks.
[7] abbreviates: 15.0 ppm in corn diet, fed 3 weeks.
Setting [8] is: 20.0 ppm in corn diet, fed 3 weeks.

Each structure is given as a SMILES string.

T1 sequence (P12276 2-2512 limits assumed): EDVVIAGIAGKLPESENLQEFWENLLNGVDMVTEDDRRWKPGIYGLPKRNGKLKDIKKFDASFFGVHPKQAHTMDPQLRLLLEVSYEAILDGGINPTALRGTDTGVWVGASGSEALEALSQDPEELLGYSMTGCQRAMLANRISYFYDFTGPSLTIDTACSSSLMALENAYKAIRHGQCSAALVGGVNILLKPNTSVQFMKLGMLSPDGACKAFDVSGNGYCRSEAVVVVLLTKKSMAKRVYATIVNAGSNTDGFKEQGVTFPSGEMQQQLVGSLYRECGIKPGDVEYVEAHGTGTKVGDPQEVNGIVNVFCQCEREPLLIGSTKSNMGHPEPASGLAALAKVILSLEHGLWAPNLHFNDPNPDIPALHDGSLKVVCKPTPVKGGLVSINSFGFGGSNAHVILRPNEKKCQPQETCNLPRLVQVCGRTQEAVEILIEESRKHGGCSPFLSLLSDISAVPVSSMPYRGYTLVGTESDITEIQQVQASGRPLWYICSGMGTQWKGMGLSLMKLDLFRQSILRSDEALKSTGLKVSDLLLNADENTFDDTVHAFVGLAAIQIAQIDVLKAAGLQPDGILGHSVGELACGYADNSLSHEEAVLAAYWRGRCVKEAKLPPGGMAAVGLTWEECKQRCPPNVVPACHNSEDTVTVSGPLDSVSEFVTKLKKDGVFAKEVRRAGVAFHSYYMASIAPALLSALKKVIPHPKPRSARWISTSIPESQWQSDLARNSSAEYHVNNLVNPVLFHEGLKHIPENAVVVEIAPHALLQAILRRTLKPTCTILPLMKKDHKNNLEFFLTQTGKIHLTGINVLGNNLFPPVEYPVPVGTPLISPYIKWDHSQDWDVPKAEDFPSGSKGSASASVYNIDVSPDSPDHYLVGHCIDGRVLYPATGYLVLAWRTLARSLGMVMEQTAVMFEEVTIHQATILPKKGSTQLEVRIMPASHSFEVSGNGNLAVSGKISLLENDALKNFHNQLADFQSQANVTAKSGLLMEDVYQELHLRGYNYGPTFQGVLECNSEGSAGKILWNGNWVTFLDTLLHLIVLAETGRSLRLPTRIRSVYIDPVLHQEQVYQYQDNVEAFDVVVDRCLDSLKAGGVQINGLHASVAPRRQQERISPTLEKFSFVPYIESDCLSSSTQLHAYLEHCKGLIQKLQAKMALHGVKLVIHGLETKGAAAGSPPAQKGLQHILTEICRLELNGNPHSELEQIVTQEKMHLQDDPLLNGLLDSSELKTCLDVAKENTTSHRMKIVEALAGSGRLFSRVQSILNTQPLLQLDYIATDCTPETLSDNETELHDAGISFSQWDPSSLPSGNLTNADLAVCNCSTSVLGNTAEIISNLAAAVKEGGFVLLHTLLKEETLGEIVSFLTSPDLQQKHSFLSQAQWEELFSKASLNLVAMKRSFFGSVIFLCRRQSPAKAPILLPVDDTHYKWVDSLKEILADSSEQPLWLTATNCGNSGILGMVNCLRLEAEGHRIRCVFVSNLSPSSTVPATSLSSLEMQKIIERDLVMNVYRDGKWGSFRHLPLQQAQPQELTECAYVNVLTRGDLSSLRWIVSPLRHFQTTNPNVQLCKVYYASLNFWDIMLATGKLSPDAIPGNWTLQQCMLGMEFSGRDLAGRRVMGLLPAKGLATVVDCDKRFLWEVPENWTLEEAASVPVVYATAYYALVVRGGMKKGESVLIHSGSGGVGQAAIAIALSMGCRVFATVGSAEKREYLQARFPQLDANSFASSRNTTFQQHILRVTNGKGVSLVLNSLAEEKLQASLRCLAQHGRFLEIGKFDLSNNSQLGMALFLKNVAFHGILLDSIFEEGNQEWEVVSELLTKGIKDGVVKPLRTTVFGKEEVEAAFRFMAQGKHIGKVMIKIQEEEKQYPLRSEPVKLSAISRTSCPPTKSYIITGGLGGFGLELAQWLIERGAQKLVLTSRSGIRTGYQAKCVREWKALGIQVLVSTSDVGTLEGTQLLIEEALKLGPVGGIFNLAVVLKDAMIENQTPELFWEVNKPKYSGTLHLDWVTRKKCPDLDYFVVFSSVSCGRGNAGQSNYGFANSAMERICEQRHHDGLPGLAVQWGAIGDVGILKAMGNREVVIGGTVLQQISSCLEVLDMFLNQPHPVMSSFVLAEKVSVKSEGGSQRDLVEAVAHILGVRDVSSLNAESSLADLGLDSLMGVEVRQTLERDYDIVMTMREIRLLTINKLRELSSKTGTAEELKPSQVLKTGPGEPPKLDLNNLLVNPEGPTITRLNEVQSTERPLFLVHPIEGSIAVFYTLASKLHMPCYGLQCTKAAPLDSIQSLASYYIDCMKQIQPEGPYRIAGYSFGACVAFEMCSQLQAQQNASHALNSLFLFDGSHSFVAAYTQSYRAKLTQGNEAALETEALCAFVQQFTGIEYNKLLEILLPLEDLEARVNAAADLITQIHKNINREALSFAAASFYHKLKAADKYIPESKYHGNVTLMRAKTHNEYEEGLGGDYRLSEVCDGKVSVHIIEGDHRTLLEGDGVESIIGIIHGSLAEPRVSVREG

`CC(C)=CCC/C(C)=C/CC/C(C)=C/CC[C@]1(C)CCc2c(C)c(O)c(C)c(C)c2O1` [Cholesterol inhibitor I, 2,5,7,8-tetramethyl-2 (4,8, 12-trimethyltrideca-3,7, 11-trienyl)chroman-6-ol]: the “Effect on activities of FAS” value on FAS is given as “significant increase”. For the same molecule, on HMG-CoA reductase [1], the “Effect on HMG Co-A reductase in isolated hepatocytes” value is recorded as “significant inhibition”. In addition, the “HMG-CoA Reductase, percentage of control” value at HMG-CoA reductase [2] (setting [4]) was 87 Percentage of respective contr; on HMG-CoA reductase [2] (setting [5]), 81 Percentage of respective contr; at HMG-CoA reductase [2] (setting [6]), 73 Percentage of respective contr; at HMG-CoA reductase [2] (setting [7]), 68 Percentage of respective contr; at HMG-CoA reductase [2] (setting [8]), 66 Percentage of respective contr; on HMG-CoA reductase [3], 63 Percentage of respective contr. For the same molecule, the “HMG-CoA Reductase” value on HMG-CoA reductase [2] (setting [4]) is 172 ± 12 pmoles of mevalonic acid synth; on HMG-CoA reductase [2] (setting [5]), 161 ± 12 pmoles of mevalonic acid synth; at HMG-CoA reductase [2] (setting [6]), 144 ± 9 pmoles of mevalonic acid synth; at HMG-CoA reductase [2] (setting [7]), 135 ± 8 pmoles of mevalonic acid synth; at HMG-CoA reductase [2] (setting [8]) it was 130 ± 6 pmoles of mevalonic acid synth; on HMG-CoA reductase [2] (corn diet + 5 ppm (Table 2)), 134 ± 6 pmoles of mevalonic synthesize. In addition, on HMG-CoA reductase [3] (mean ± SD, N = 8), the “HMG-CoA Reductase” value was 305 ± 18 pmoles of mevalonic acid synth.
